# Experimental data: ChEMBL document CHEMBL1201862, “PubChem BioAssay data set” (2004)
# Calls of active or inactive are those of the source.
# Key:
# Coagulation factor XII = biological target: T1, Coagulation factor XII (Homo sapiens, UniProt P00748); type: functional;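 note: activated factor XIIa alpha cleaving a fluorogenic AMC peptide substrate; inhibitor potency from loss of enzyme activity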
# T1 sequence (P00748 whole entry): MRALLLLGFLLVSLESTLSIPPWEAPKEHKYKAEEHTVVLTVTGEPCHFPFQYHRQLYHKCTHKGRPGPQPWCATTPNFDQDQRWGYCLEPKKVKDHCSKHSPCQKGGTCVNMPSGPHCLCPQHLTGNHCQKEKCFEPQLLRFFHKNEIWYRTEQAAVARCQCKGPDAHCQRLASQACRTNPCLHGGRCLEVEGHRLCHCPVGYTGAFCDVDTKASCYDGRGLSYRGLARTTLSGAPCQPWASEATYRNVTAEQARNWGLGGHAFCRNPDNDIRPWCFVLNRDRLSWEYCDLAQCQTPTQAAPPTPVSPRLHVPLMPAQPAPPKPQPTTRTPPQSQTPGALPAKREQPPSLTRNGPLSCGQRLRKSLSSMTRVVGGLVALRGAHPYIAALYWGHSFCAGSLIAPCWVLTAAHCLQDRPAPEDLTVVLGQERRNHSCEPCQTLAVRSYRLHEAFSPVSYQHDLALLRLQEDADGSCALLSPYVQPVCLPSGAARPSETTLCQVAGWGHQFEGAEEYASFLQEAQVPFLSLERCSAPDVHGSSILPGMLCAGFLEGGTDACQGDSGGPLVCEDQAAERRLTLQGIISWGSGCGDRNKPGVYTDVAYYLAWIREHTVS
# Bcl-2-like protein 10 = biological target: T2, Bcl-2-like protein 10 (Homo sapiens, UniProt Q9HD36); assay: Bcl-B/TR3 peptide binding disruption – biochemical, fluorescence polarization, FITC-TR3 peptide, selectivity assay for Bfl-1 inhibitor project, primary screen (AID 748);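 note: fluorescence polarization from a fluorescein-labelled TR3 peptide binding purified Bcl-B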
# T2 sequence (Q9HD36 whole entry): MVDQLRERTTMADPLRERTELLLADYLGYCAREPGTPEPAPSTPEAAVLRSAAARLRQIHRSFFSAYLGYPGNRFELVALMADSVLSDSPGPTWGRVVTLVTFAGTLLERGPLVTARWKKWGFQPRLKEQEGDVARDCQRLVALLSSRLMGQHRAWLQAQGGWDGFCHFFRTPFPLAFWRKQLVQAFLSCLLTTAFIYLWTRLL
# [1] = biological target: Induced myeloid leukemia cell differentiation protein Mcl-1 (Homo sapiens, UniProt Q07820); type: functional
# Nonstructural protein 1 = Nonstructural protein 1 (Influenza A virus, UniProt Q194T2); type: functional, Influenza A virus (A/California/07/2009(H1N1))
# [2] = M. tuberculosis H37Rv growth inhibitors, H37Rv strain (AID 1626); type: functional
# Troponin, cardiac muscle = Troponin, cardiac muscle (Homo sapiens, UniProt P19429+P45379+P63316); assay: Fluorescence-based biochemical high throughput dose response assay for activators of the calcium sensitivity of cardiac Regulated Thin Filaments (RTF). [Related pubchem assays (depositor defined):AID493008, AID493018, AID504382, AID504383]; type: protein-complex assay
# [3] = Trypanosoma cruzi growth suppression in host cells – NIH3T3 host cells, beta-gal luminescence, confirmation (AID 2044); type: functional, cell-based;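 note: intracellular parasites grown in NIH/3T3 mouse fibroblasts as host cells; luminescent beta-galactosidase reporter signal from transgenic T. cruzi replicating inside host cells; inhibitors lower the luminescence signal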
# [4] = biological target: T3, DNA repair protein RAD52 homolog (Homo sapiens, UniProt P43351); type: functional, biochemical
# T3 sequence (P43351 whole entry): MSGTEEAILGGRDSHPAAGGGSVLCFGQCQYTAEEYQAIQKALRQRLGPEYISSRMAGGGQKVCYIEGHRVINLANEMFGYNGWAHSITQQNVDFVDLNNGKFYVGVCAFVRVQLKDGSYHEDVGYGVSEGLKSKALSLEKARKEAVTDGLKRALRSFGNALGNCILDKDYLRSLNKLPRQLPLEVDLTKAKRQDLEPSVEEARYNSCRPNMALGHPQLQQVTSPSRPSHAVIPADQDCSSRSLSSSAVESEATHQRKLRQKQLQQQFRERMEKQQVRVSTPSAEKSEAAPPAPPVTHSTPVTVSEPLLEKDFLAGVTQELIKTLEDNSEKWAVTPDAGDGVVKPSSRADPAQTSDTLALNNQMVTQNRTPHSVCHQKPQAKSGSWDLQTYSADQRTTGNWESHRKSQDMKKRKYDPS
# [5] = NIH3T3 cell viability loss – ATP luminescence, mouse fibroblasts, counter-screen, dose response (AID 2010); type: functional, cell-based;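 note: cells exposed to compound for about 90 hours before reading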
# [6] = biological target: Luciferin 4-monooxygenase (Photinus pyralis, UniProt P08659); assay: Counter Screen for Luciferase-based Assay Positives. [Related pubchem assays: 620, 618, 411 ]
# HT-1080 = assay: HT1080 cell viability loss – fluorescence readout (AID 620); type: functional, cell-based; details: Homo sapiens
# [7] = biological target: Melanin-concentrating hormone receptor 1 (Homo sapiens, UniProt Q99705); assay: Late-stage fluorescence-based counterscreen for antagonists of the G-protein coupled receptor 7 (GPR7): cell-based dose response assay to identify antagonists of the melanin-concentrating hormone receptor 1 (MCHR1). [Related pubchem assays (depositor defined):AID1861, AID1880, AID1952, AID2148, AID2251, AID2257, AID485339]; type: functional;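 note: stimulated with 30 nM MCH peptide agonist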
# Sequence of Melanin-concentrating hormone receptor 1 (Q99705 whole entry): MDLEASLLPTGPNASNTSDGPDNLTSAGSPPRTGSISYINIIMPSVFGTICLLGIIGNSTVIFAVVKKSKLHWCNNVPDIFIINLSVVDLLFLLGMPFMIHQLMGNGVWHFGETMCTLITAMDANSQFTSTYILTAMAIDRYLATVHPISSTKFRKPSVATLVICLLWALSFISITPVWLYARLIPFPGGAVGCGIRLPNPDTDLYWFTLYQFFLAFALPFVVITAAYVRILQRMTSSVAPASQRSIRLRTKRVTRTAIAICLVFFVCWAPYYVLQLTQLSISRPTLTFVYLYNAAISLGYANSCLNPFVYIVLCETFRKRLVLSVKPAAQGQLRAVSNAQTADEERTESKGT
# Sequence of Luciferin 4-monooxygenase (P08659 whole entry): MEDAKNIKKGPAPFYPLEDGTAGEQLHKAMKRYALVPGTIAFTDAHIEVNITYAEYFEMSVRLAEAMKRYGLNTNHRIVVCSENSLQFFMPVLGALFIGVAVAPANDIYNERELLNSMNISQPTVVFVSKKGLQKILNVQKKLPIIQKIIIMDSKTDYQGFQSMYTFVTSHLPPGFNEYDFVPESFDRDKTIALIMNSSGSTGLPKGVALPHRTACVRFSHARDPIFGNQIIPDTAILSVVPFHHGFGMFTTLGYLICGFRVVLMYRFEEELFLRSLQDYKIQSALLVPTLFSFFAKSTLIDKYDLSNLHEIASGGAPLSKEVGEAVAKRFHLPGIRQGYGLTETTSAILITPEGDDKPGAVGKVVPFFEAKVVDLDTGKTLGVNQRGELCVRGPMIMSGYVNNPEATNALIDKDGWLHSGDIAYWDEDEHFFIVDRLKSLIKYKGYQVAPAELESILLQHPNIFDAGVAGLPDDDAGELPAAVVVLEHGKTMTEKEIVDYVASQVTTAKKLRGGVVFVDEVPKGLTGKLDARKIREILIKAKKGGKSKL
# Sequence of Nonstructural protein 1 (Q194T2 whole entry): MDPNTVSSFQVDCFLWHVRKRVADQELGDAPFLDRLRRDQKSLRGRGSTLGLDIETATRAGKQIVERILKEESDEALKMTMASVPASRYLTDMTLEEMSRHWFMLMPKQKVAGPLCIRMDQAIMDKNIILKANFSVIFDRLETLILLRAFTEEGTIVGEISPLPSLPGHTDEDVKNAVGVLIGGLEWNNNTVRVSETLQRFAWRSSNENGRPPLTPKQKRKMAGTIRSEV
# Sequence of Induced myeloid leukemia cell differentiation protein Mcl-1 (Q07820 whole entry): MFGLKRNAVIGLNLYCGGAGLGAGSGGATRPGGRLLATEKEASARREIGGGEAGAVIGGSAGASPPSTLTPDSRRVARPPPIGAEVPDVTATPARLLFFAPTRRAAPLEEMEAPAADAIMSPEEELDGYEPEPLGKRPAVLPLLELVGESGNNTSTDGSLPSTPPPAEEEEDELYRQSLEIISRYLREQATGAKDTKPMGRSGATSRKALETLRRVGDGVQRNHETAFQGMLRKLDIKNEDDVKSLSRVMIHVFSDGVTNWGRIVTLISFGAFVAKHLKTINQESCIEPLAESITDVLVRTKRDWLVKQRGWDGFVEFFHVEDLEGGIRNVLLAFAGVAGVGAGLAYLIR
smiles,measurement,setting,value
COC(=O)c1nnc(NC(C)=O)[nH]1,IC50,Coagulation factor XII,12.2 µM (active)
CN(C)c1ccc(NC(=O)CN2C(=O)CN=C(c3ccccc3)c3cc(Cl)ccc32)cc1,IC50,Bcl-2-like protein 10,> 100 µM (inactive)
same,IC50,[1],0.856 µM (not active)
same,IC50,Nonstructural protein 1,31 µM (active)
CCCCOC(=O)c1ccc(NC(=O)C(=O)NCc2ccccn2)cc1,IC50,[2],> 100 µM (active)
CC(C(=O)c1ccc(Br)cc1)[n+]1cccc2ccccc21 (centres undefined),EC50,"Troponin, cardiac muscle",15.2 µM (inactive)
Cc1ccc2nc(N(CCCN(C)C)C(=O)CN3C(=O)c4ccccc4C3=O)sc2c1,EC50,cells,0.055 µM (active)
same,EC50,[3],< 0.1 µM (active)
same,AC50,[4],21.7 µM (active)
same,EC50,[5],> 60 µM (not active)
CC1CCc2nc(NC(=O)C3CCCO3)sc2C1 (centres undefined),EC50,[6],< 0.2 µM (active)
same,EC50,HT-1080,> 50 µM (not active)
Cc1ccc(-n2ncc(Cl)c(Oc3ccc(CO)cc3)c2=O)cc1,IC50,[7],> 20 µM (inactive)
CC1(C)CC(=O)C(/C=N/c2ccc3c(c2)OCO3)=C(O)C1,IC50,[2],> 100 µM (active)
